Laboratory results published in patent publication US12102685B2, “Immodulator peptides covalently modified with small molecules” (priority 2020, dated 2024).
Marks after values point to notes of the source that are not given here. Square brackets hold non-standard residues; d marks the D form. Ends that are not written are not given here. Peptide text beside a SMILES is read from it. * marks the point of attachment. RG108 = O=C1c2ccccc2C(=O)N1[C@@H](Cc1c[nH]c2ccccc12)C(=O)*

Legend:
[1] = Strength of binding to iron, plate assay (x2E b); details: 1 ug/well peptide complexed to Alexa-488-streptavidin; ferric iron
Protocol: Immodulator peptides were extended C-terminally by three amino acids, to include a valine residue that is highly conserved in the “thyroglobulin type 1 motif”. The reasoning behind this attempt is that a longer conserved sequence might lead to a tighter fold overall, which might in turn result in increased metal-binding avidity. • (b) Strength of binding to iron was evaluated by plate assay.
(§1) Experiments were conducted by the procedure described above. Ferric iron-charged NTA-coated 96-well plates were used as described. 1 ug/well immodulator peptide complexed to Alexa-488-labeled streptavidin in PBS buffer was added (60 min at room temperature). The plate was washed and counted in a standard fluorometer (excitation/emission: 485/525 nm). The results (fluorescence) show improved iron-binding by the three peptides extended C-terminally by the AVD, (dA)VD, and FVS tripeptides. **p<0.01 vs IM3 control IM3: 200±29; IM4: 45±37**; IM5: 130±77; IM3AVD: 434±29**; IM3dAVD: 418±28**; IM3FVS: 371±33** • (c) Competition assay. The same procedure was used as the preceding experiment, except that 375 ng/well labeled IM3 peptide was used, plus 10× of the indicated unlabeled peptide. ‘No competing peptide’ control value was set to 100. *p<0.05 vs “no peptide” control Competing Peptide/Fluorescence • None: 100±38; IM4: 125±26; IM3: 63±27*; IM5: 40±14*; IM3AVD: 10±28* • (d) Competition assay. The same procedure was used as the preceding experiment, except that labeled IM3AVD peptide was used. **p<0.01 vs “no competing peptide” control • None: 100±9; IM4: 144±44; IM3: 35±16**; IM5: 30±19**; IM3AVD: 9±19** • (e) The same procedure was used as the preceding experiment, except that each peptide was labeled with Alexa-488-labeled streptavidin in PBS buffer and used separately. Binding to IM3 was set to =100. *p<0.05, **p<0.01 vs IM3 control. (Labeled Peptide/Fluorescence) IM1: 1.8±0.4**; IM2: 3.0±1.8**; IM3: 100.0±16.8; IM4: 7.2±1.7*; IM5: 86.7±6.4; IM6: 85.9±14.9; IM3AVD:137.7±11.8*; IM3dAVD:147.4±22.9*; IM3FVS: 101.5±10.5.

[2] = Iron binding of separately labeled peptides (x2E e); details: each peptide labeled separately; IM3 = 100; ferric iron
Protocol: as §1

NF-kappa-B (NFkB) = test: THP1-Dual monocyte reporter, NF-kappa-B readout (x4A); format: cell-based; details: no peptide
Protocol: (§2) Immune modulation functions of immodulator peptides were measured using the monocyte reporter cell line THP1-Dual (Invivogen, San Diego, CA), which provides convenient readouts for STING and NF-kappa-B pathways. Optionally, succinic acid, cytokine and chemokine production were also measured. THP1-Dual cell line was obtained from Invivogen. Cells were grown in a T-75 flask in RPMI Medium containing 20% fetal bovine serum, blasticidin ([…]), zeocin ([…]) and penicillin-streptomycin at 37° C. in a humidified, 5% CO2 incubator. Cells ([…], 8,000 cells/well) were plated in a 96-well plate and incubated overnight at 37 °C in a humidified, 5% CO2 incubator. Next day, […] of compounds were added (quadruplicate wells). After 24 hour incubation with the compound, supernatants were harvested and stored at 4° C. prior to assay.
(§3) Each cell supernatant was assayed in quadruplicate. 20 uL of supernatant was used to measure NF-kappa-B (NFkB) and
(§4) STING activity using reagents QuantiBlu and QuantiLuc respectively, according to the manufacturer's recommendations (Invivogen, San Diego, CA). Succinic acid was measured by using a kit from Megazyme Inc (Cambridge, MA). Control value of activity was set to 100 in each assay. […] PAM3C=25 ng/ml PAM3CSK4 (TLR1/2 inducer); Poly(I:C)=10 ug/ml (TLR3 inducer); PAM2C=25 ng/ml PAM2CSK4 (TLR2/6 inducer); KIN14=4 uM KIN-1400 (RIG-I inducer); cytB=1 uM cytosporone B (Nur77 inducer); C-178=1 uM STING inhibitor; NFkBi=50 ug/ml NFkB inhibitor peptide; SB2021=10 uM p38MAPK inhibitor; *p<0.05, **p<0.01 vs IM3 control; #p<0.01 vs “no inducer” control; SUCC=succinic acid; nd=not done; Peptide was added to cells at 400 nM.
(§5) Peptides were added to cells at 400 nM. […]

STING = test: THP1-Dual monocyte reporter, STING readout (x4A); format: cell-based; details: no peptide
Protocol: as §2, §3, §4, §5

THP1-Dual monocytes = test: Succinic acid in THP1-Dual supernatant (x4A); format: cell-based; details: no peptide
Protocol: as §2, §4, §5

A375 cells = test: A375 cell viability, CellTiterGlo (x10A); format: cell-based; details: 72 hours
Protocol: (§6) Immune modulation functions of immodulator peptides have great potential untility in the field of cancer. A375 cell line was obtained from American Type Culture Collection (ATCC). They were grown in a T-75 flask in DMEM Medium containing 10% fetal bovine serum and penicillin-streptomycin at 37° C. in a humidified, 5% CO2 incubator. Cells ([…], 2,000 cells/well) were plated in a 96-well plate and incubated overnight at 37° C. in a humidified, 5% CO2 incubator. Next day, […] of compounds were added (quadruplicate wells). After 72 hour incubation with the compound, cell viability was measured in a luminometer after the addition of […] CellTiterGlo reagent (Promega Inc, Madison, WI) as recommended by the manufacturer.
Experiment x10A. Anti-cancer activity of immodulator peptides on A375 cells. A 96-well plate was seeded with 2,000 A375 cells per well in DMEM medium containing 10% FBS and PenStrep. After 24 hrs at 37 deg C., compounds and peptides were added (each treatment done in quadruplicate). After a further 72 hours incubation, 100 uL/well of CTG assay reagent purchased from Promega Inc. (Madison, WI) was added. Plate was read after 10 minutes, as recommended by the manufacturer. Peptides were added at 2 uM. The results of this experiment are shown below, expressed as percent survival ofA375 cells.

[3] = system: COL1 in HFF-1 dermal fibroblasts; test: Collagen-1 ELISA in HFF-1 dermal fibroblasts (x11A); format: cell-based; details: peptide 2 uM, 72 hour; control (buffer) = 100
Protocol: as §6, with “have” for “have great”, “cosmetics. HFF-1” for “cancer. A375”, “Cells” for “They”, “compound, supernatants were collected for Collagen-1 ELISA assay and” for “compound,”
Collagen stimulating activity of immodulator peptides in HFF-1 dermal fibroblasts. Peptides were added to cells at 2 uM. COL1 immunoreactivity was measured in the supernatants of cultured cells by ELISA using a rabbit monoclonal anti-COL1 primary antibody (Abcam, Cambridge, MA). Control (buffer) value of immunoreactivity was set to 100.

[4] = Competition binding assay to metal-charged NTA-coated plates (x2B b); details: PBS on calcium = 100
Protocol: NTA-metal-affinity fluorescence assay was performed using 96-well NTA-metal-coated plates readily available from commercial sources such as Qiagen (Germantown, MD). NTA was charged with ferrous or ferric iron, zinc, copper, calcium, vanadium, ruthenium, cobalt, titanium, manganese or other metals. 400 ng of FITC-labeled immodulator peptide (or biotinylated immodulator peptide complexed to Alexa-488-labeled streptavidin) in PBS buffer was added per plate. After incubation at room temperature for 60 minutes, excess peptide was washed off and peptide was detected by measuring fluorescence (excitation 490 nm, emmission 525 nm) in a fluorometer. • (a) Using FITC-labeled IM3 peptide (1 ug/well) in the fluorescent binding assay: • EDTA-treated control: 2,251±1,186 • Ferrous iron: 170,441±11,264 (p<0.001)* • Copper: 13,644±5566 (p<0.05)* • Calcium: 48,822±11,990 (p<0.01)* • *p values are relative to EDTA-treated control • (b) Competition binding assay to ferrous iron, calcium, copper and zinc-charged NTA-coated plates using FITC-labeled IM3 peptide (0.5 uM) and 8× (4 uM) unlabelled competitor peptides IM3N1, IM3N2 (*all comparisons to PBS control are p<0.01); # fluorescent value of binding to […] was set at 100.

[5] = KIN1400 alone, IM3 + KIN1400 = 100
[6] = 25 ng/ml PAM2CSK4 alone, IM3 + PAM2C = 100
[7] = 25 ng/ml PAM3CSK4 alone, control = 100

## CC(C)[C@H](NC(=O)[C@H](Cc1ccccc1)NC(=O)[C@H](Cc1c[nH]c2ccccc12)NC(=O)[C@H](CS)NC(=O)[C@H](Cc1ccccc1)NC(=O)CNC(=O)[C@H](CCCNC(=N)N)NC(=O)[C@H](CCCCN)NC(=O)[C@H](CCCNC(=N)N)NC(=O)CNC(=O)[C@H](CCCCN)NC(=O)[C@H](CO)NC(=O)[C@@H]1CCCN1C(=O)[C@H](CCCNC(=N)N)NC(=O)[C@H](CS)NC(=O)[C@H](CCC(N)=O)NC(=O)[C@H](CCCCN)NC(=O)[C@H](CCCCN)NC(=O)[C@H](CCCCN)NC(=O)[C@H](Cc1ccc(O)cc1)NC(=O)[C@H](Cc1ccccc1)NC(=O)CNC(=O)[C@H](CCCCN)NC(=O)[C@@H](N)CCCCN)C(=O)N[C@@H](CO)C(=O)O [IM3FVS] (H-KKGFYKKKQCRPSKGRKRGFCWFVS-OH; N-terminus and C-terminus assumed)
[1]
  fluorescence (iron binding): 371±33
[2]
  fluorescence of labeled peptide: 101.5±10.5

## Oc1c(C(Nc2nc3ccccc3s2)c2ccc(OC(F)F)cc2)ccc2cccnc12 (centres unmarked) [KIN1400, KIN-1400, reference compound]
NF-kappa-B (NFkB); KIN1400 (RIG-I agonist) alone, IM3 + KIN1400 = 100
  NFkB: 90.1
STING; [5]
  STING: 84.3**
THP1-Dual monocytes; [5]
  SUCC: 100.1
A375 cells; Kin1400 4 uM alone, no peptide
  percent survival of A375 cells: 100.7%

## (rg108)-KKGFYKKKQCRPSKGRKRGFCW (RG108-KKGFYKKKQCRPSKGRKRGFCW; cysteine pairing not given here) [IM3rg8, IM3 N-terminally conjugated with RG108]
A375 cells; peptide 2 uM + Kin1400 4 uM (RIG-I agonist)
  percent survival of A375 cells: 105.8%
A375 cells; peptide 2 uM, Buffer
  percent survival of A375 cells: 89.9** percent

## AFNSYELGSKGFYKKKQCRPSKGRKRGFCW [IM3K9]
[3]
  COL1 immunoreactivity in supernatant: 155**

## AFNSYELGSKGFYKKKQCRPSKGRKRGFCWAVDKY [IM3K9c]
[3]
  COL1 immunoreactivity in supernatant: 158**

## AFNSYELGSKKGFYKKKQCRPSKGRKRGFCW [IM3K9.1]
[3]
  COL1 immunoreactivity in supernatant: 156**

## FNSYELGSLKKGFYKKKQCRPSKGRKRGFCW [IM3K8]
[3]
  COL1 immunoreactivity in supernatant: 98

## KKGFYKKKQCRPSKGRKRGFCW(dA)VD (KKGFYKKKQCRPSKGRKRGFCW[dA]VD; cysteine pairing not given here) [IM3dAVD, IM3 extended C-terminally by (dA)VD]
[1]
  fluorescence (iron binding): 418±28
[2]
  fluorescence of labeled peptide: 147.4±22.9

## PAM2CSK4 [reference compound]
NF-kappa-B (NFkB); [6]
  NFkB: 118.7**
STING; [6]
  STING: 144.5**
THP1-Dual monocytes; [6]
  SUCC: 121.5*

## PAM3CSK4 [reference compound]
NF-kappa-B (NFkB); [7]
  NFkB: 326 #
STING; [7]
  STING: 342 #

## TGPSESYLQLEELVKQVVSKGFYKKKQCRPSKGRKRGFCW [IM3N2]
[4]; Calcium, 0.5 uM FITC-IM3, 8x (4 uM) unlabelled competitor
  FITC-IM3 fluorescence with competitor: 12.9 ± 1.2*
[4]; Copper, 8x (4 uM) unlabelled competitor
  FITC-IM3 fluorescence with competitor: 5.1 ± 1.0*
[4]; Ferrous iron, 8x (4 uM) unlabelled competitor
  FITC-IM3 fluorescence with competitor: 25.2 ± 9.5*
[4]; Zinc, 8x (4 uM) unlabelled competitor
  FITC-IM3 fluorescence with competitor: 13.4 ± 1.6*
